We go through 13 compounds from US9957261B2 (Hoffmann-La Roche Inc., priority 2014, dated 2018).

The structures appear in SMILES notation.

In test [1] the target is rat TAAR1 (Rattus norvegicus (Rat), UniProt Q923Y9). Kind of test: Radioligand binding assay on rat TAAR1. To be noted: rat TAAR1, membranes of stably transfected HEK-293 cells; second value of mouse/rat pair. Here is the method:
(§1) Construction of TAAR Expression Plasmids and Stably Transfected Cell Lines
(§2) For the construction of expression plasmids the coding sequences of human, rat and mouse TAAR 1 were amplified from genomic DNA essentially as described by Lindemann et al.. The Expand High Fidelity PCR System (Roche Diagnostics) was used with 1.5 mM Mg^2+ and purified PCR products were cloned into pCR2.1-TOPO cloning vector (Invitrogen) following the instructions of the manufacturer. PCR products were subcloned into the pIRESneo2 vector (BD Clontech, Palo Alto, Calif.), and expression vectors were sequence verified before introduction in cell lines.
(§3) HEK293 cells (ATCC # CRL-1573) were cultured essentially as described by Lindemann et al. (2005). For the generation of stably transfected cell lines HEK293 cells were transfected with the pIRESneo2 expression plasmids containing the TAAR coding sequences (described above) with Lipofectamine 2000 (Invitrogen) according to the instructions of the manufacturer, and 24 hrs post transfection the culture medium was supplemented with 1 mg/ml G418 (Sigma, Buchs, Switzerland). After a culture period of about 10 d clones were isolated, expanded and tested for responsiveness to trace amines (all compounds purchased from Sigma) with the cAMP Biotrak Enzyme immunoassay (EIA) System (Amersham) following the non-acetylation EIA procedure provided by the manufacturer.
Radioligand Binding Assay on Rat TAAR1
(§4) Membrane Preparation and Radioligand Binding.
(§5) HEK-293 cells stably expressing rat TAAR1 were maintained at 37° C. and 5% CO2 in DMEM high glucose medium, containing fetal calf serum (10%, heat inactivated for 30 min at 56° C.), penicillin/streptomycin (1%), and 375 μg/ml geneticin (Gibco). Cells were released from culture flasks using trypsin/EDTA, harvested, washed twice with ice-cold PBS (without Ca^2+ and Mg^2+), pelleted at 1′000 rpm for 5 min at 4° C., frozen and stored at −80° C. Frozen pellets were suspended in 20 ml HEPES-NaOH (20 mM, pH 7.4) containing 10 mM EDTA and homogenized with a Polytron (PT 6000, Kinematica) at 14,000 rpm for 20 s. The homogenate was centrifuged at 48,000×g for 30 min at 4° C. Subsequently, the supernatant was removed and discarded, and the pellet resuspended in 20 ml HEPES-NaOH (20 mM, pH 7.4) containing 0.1 mM EDTA using the Polytron (20 s at 14,000 rpm). This procedure was repeated and the final pellet resuspended in HEPES-NaOH containing 0.1 mM EDTA and homogenized using the Polytron. Typically, aliquots of 2 ml membrane portions were stored at −80° C. With each new membrane batch the dissociation constant (Kd) was determined via a saturation curve. […] Nonspecific binding was defined as the amount of [H]—(S)-4-[(ethyl-phenyl-amino)-methyl]-4,5-dihydro-oxazol-2-ylamine bound in the presence of 10 μM unlabeled ligand. All compounds were tested at a broad range of concentrations (10 pM to 10 μM) in duplicates. […] The 96 deep well plates were incubated for 1 hr at 4° C. Incubations were terminated by rapid filtration through Unifilter-96 plates (Packard Instrument Company) and glass filters GF/C (Perkin Elmer) presoaked for 1 hr in polyethylenimine (0.3%) and washed 3 times with 1 ml of cold binding buffer. After addition of 45 μl of Microscint 40 (PerkinElmer) the Unifilter-96 plate was sealed and after 1 hr the radioactivity counted using a TopCount Microplate Scintillation Counter (Packard Instrument Company).

Test [2] deals with mouse TAAR1 (Mus musculus (Mouse), UniProt Q923Y8). Nature of the test: Radioligand binding assay on mouse TAAR1. To be noted: mouse TAAR1, membranes of stably transfected HEK-293 cells; first value of mouse/rat pair. As to the method: as §1, §2, §3
Chain of mouse TAAR1 (Q923Y8 whole entry): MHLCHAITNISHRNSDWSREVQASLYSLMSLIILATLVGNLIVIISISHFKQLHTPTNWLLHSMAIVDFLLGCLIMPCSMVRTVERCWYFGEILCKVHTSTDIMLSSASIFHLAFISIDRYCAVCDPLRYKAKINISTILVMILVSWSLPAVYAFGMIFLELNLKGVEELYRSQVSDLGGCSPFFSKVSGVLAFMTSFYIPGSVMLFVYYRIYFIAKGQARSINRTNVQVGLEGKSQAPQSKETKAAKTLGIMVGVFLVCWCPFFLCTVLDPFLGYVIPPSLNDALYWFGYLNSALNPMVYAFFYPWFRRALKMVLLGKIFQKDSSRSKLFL
Radioligand Binding Assay on Mouse TAAR1
as §4
as §5, with “expressing mouse” for “expressing rat”, “of ^3[H]—(S)-4-[(ethyl-phenyl-amino)-methyl]-4,5-dihydro-oxazol-2-ylamine” for “of [H]—(S)-4-[(ethyl-phenyl-amino)-methyl]-4,5-dihydro-oxazol-2-ylamine”

Usually Ki stands for a measure of affinity in units of concentration, obtained from inhibition or displacement. A lower Ki goes with a stronger hold on the target.

Chain of rat TAAR1 (Q923Y9 whole entry): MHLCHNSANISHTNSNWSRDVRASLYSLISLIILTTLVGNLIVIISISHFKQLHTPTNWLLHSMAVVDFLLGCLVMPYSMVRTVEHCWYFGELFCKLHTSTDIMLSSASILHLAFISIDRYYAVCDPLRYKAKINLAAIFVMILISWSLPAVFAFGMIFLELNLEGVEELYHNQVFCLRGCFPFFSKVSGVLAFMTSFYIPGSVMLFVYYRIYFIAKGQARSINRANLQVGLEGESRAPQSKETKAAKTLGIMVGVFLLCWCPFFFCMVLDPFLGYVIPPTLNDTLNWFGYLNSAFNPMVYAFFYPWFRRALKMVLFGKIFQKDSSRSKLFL

Turning to `N[C@H]1CCc2cc(NC(=O)c3ccc(C(F)(F)F)nc3)ccc2C1` [Example 20, (S)—N-(6-Amino-5,6,7,8-tetrahydronaphthalen-2-yl)-6-(trifluoromethyl)nicotinamide], the figures for the Ki in test [1] and in test [2] were 0.0237 µM and 0.0265 µM, respectively.
As to `COc1ccc(C(=O)Nc2ccc3c(c2)CC[C@H](N)C3)cn1` [Example 21, (S)—N-(6-Amino-5,6,7,8-tetrahydronaphthalen-2-yl)-6-methoxynicotinamide], the figures for the inhibition constant (Ki) in test [1] and in test [2] were 0.0513 µM and 0.0344 µM, respectively.
On to `N[C@H]1CCc2cc(NC(=O)c3ccc(OCC(F)(F)F)nc3)ccc2C1` [Example 22, (S)—N-(6-Amino-5,6,7,8-tetrahydronaphthalen-2-yl)-6-(2,2,2-trifluoroethoxy)nicotinamide], for which the inhibitory constant (Ki) turned out to be 0.0016 µM in test [1] and 0.0033 µM in test [2].
For the compound `N[C@H]1CCc2cc(Nc3ncc(C(F)(F)F)cn3)ccc2C1` [Example 23, (S)—N6-(5-(Trifluoromethyl)pyrimidin-2-yl)-1,2,3,4-tetrahydronaphthalene-2,6-diamine], the Ki in test [1] is 0.0068 µM; in test [2] it was 0.0213 µM.
Consider `N[C@H]1CCc2cc(NC(=O)Nc3ccc(C(F)(F)F)cc3)ccc2C1` [Example 24, (S)-1-(6-Amino-5,6,7,8-tetrahydronaphthalen-2-yl)-3-(4-(trifluoromethyl)phenyl)urea], for which the inhibition constant (Ki) came out at 0.0003 µM in test [1] and 0.0011 µM in test [2].
Turning to `N[C@H]1CCc2cc(NC(=O)c3[nH]nc(-c4ccc(Cl)o4)c3Cl)ccc2C1` [Example 25, (S)—N-(6-Amino-5,6,7,8-tetrahydronaphthalen-2-yl)-4-chloro-3-(5-chlorofuran-2-yl)-1H-pyrazole-5-carboxamide], the results for the inhibitory constant (Ki) in test [1] and in test [2] were 0.0003 µM and 0.0007 µM, respectively.
For `Cc1onc(C(=O)Nc2ccc3c(c2)CC[C@H](N)C3)c1Cl` [Example 26, (S)—N-(6-Amino-5,6,7,8-tetrahydronaphthalen-2-yl)-4-chloro-5-methylisoxazole-3-carboxamide] the same measures were 0.0199 µM and 0.0049 µM.
As to `Cc1ccc(-n2cc(C(=O)Nc3ccc4c(c3)CC[C@H](N)C4)cn2)cc1` [Example 27, (S)—N-(6-Amino-5,6,7,8-tetrahydronaphthalen-2-yl)-1-p-tolyl-1H-pyrazole-4-carboxamide], the inhibition constant (Ki) in test [1] stood at 0.0037 µM; in test [2], 0.0028 µM.
For the compound `N[C@H]1CCc2cc(NC(=O)c3cnn(-c4ccc(Cl)c(Cl)c4)c3)ccc2C1` [Example 28, (S)—N-(6-Amino-5,6,7,8-tetrahydronaphthalen-2-yl)-1-(3,4-dichlorophenyl)-1H-pyrazole-4-carboxamide], the Ki in test [1] was 0.0003 µM; in test [2], 0.0007 µM.
For the compound `N[C@H]1CCc2cc(NC(=O)c3cnn(-c4ccc(OC(F)(F)F)cc4)c3)ccc2C1` [Example 29, (S)—N-(6-Amino-5,6,7,8-tetrahydronaphthalen-2-yl)-1-(4-(trifluoromethoxy)phenyl)-1H-pyrazole-4-carboxamide], the Ki in test [1] came out at 0.0005 µM; in test [2], 0.0012 µM.
With `CCOc1ccc(NC(=O)c2ccc3c(c2)CCC(N)C3)cn1` (centres unmarked) [Example 31, 6-Amino-N-(6-ethoxypyridin-3-yl)-5,6,7,8-tetrahydronaphthalene-2-carboxamide], the inhibition constant Ki is 0.0434 µM in test [1] and 0.0247 µM in test [2].
With `NC1CCc2cc(C(=O)Nc3cnc(C4CC4)nc3)ccc2C1` (centres unmarked) [Example 32, 6-Amino-N-(2-cyclopropylpyrimidin-5-yl)-5,6,7,8-tetrahydronaphthalene-2-carboxamide], the Ki in test [1] was found to be 0.309 µM; in test [2], 0.105 µM.
For `NC1CCc2cc(C(=O)Nc3cnc(C(F)(F)F)cn3)ccc2C1` (centres unmarked) [Example 33, 6-Amino-N-(5-(trifluoromethyl)pyrazin-2-yl)-5,6,7,8-tetrahydronaphthalene-2-carboxamide], in that order: 0.0865 µM and 0.021 µM.
